These results are taken from ChEMBL document CHEMBL3991601, “The target landscape of clinical kinase drugs” (Science, 2017).

The target in experiment [1] is T1, Serine/threonine-protein kinase D3 (Homo sapiens, UniProt O94806).
T1 sequence (O94806 whole entry): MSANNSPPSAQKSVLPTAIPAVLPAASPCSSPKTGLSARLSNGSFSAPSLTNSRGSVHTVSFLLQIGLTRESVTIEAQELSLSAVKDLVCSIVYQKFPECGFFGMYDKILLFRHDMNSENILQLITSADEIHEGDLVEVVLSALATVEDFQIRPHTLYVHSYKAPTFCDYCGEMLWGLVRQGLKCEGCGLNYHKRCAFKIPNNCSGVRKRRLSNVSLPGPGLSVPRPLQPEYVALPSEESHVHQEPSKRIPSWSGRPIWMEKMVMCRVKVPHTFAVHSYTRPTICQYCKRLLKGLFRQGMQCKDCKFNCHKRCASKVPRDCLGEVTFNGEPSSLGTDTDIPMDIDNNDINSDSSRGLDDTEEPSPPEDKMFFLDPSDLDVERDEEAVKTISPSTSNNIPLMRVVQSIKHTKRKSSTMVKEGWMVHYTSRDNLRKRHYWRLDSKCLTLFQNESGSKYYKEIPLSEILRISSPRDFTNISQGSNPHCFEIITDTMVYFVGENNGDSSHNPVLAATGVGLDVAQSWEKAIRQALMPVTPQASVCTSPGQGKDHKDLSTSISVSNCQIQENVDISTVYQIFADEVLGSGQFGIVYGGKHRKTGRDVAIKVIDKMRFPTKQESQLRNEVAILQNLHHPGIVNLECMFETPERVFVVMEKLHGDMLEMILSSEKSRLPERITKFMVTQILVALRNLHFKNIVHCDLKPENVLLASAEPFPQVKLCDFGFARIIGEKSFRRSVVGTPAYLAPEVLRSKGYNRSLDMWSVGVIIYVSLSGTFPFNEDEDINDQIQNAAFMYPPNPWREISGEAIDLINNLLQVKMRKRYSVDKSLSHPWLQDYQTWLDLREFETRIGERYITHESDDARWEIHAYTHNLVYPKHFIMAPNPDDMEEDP

The target of experiment [2] is T2, Tyrosine-protein kinase Tec (Homo sapiens, UniProt P42680).
T2 sequence (P42680 whole entry): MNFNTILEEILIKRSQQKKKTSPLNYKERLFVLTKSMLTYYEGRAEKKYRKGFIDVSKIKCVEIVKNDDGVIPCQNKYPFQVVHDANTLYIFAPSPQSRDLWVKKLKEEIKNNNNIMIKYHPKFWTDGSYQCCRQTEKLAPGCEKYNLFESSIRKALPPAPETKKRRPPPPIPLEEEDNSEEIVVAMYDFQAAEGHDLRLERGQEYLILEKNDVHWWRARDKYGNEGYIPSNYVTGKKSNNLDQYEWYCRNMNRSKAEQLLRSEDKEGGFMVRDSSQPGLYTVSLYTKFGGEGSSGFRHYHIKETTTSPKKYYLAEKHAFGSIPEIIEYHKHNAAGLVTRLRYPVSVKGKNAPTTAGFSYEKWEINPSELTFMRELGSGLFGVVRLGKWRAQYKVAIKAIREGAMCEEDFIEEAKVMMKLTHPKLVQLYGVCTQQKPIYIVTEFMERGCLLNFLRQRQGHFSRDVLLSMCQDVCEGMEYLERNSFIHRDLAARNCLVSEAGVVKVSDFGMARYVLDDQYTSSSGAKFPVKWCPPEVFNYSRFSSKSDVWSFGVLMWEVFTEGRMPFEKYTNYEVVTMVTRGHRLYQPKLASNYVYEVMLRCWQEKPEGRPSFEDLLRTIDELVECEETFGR

Experiment [3] concerns the target Casein kinase II subunit alpha' (Homo sapiens, UniProt P19784).
In experiment [4] the target is Dual specificity mitogen-activated protein kinase kinase 2 (Homo sapiens, UniProt P36507).
The target of experiment [5] is T3, Mitogen-activated protein kinase kinase kinase 5 (Homo sapiens, UniProt Q99683).
T3 sequence (Q99683 whole entry): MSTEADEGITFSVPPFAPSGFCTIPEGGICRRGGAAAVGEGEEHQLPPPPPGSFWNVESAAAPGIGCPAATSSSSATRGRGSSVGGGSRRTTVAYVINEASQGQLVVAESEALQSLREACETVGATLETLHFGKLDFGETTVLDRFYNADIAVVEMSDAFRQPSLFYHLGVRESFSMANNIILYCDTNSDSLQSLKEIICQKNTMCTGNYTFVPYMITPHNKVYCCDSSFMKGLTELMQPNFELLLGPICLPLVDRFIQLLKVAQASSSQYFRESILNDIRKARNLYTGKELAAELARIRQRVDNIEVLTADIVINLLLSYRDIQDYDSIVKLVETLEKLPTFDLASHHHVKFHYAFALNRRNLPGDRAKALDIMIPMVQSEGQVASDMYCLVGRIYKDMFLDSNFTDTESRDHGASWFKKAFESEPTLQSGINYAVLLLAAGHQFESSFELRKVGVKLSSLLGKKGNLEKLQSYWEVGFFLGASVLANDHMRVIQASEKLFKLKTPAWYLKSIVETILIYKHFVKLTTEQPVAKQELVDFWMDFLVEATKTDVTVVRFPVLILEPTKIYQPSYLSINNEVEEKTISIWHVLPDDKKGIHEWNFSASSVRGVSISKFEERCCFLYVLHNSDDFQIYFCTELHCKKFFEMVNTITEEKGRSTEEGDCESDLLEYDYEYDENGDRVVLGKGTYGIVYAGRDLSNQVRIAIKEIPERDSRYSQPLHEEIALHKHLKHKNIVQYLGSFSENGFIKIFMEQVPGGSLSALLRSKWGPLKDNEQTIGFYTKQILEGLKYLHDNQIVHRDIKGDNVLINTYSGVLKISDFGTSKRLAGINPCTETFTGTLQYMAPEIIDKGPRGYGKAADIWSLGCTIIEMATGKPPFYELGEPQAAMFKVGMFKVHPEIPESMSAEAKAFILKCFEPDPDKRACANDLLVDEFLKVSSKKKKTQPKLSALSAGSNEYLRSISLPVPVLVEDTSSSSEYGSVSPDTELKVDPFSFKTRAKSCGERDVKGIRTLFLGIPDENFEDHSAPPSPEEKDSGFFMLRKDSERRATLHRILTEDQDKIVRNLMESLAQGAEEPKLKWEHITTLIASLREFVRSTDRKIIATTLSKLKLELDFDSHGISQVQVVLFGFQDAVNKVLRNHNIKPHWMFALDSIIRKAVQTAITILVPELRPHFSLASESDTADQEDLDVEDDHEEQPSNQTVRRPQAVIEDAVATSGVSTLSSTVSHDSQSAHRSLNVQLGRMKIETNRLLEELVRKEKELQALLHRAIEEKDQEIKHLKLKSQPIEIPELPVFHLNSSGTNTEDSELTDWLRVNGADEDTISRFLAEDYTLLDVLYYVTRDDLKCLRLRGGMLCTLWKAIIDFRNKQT

In experiment [6] the target is Mitogen-activated protein kinase kinase kinase kinase 5 (Homo sapiens, UniProt Q9Y4K4).

SMILES strings stand for the structures. The source made the active and inactive calls. For most assays here, no stated cut-off is given here; in the data, actives have a measured Kd and inactives only a lower limit.

Sequence of Casein kinase II subunit alpha' (P19784 whole entry): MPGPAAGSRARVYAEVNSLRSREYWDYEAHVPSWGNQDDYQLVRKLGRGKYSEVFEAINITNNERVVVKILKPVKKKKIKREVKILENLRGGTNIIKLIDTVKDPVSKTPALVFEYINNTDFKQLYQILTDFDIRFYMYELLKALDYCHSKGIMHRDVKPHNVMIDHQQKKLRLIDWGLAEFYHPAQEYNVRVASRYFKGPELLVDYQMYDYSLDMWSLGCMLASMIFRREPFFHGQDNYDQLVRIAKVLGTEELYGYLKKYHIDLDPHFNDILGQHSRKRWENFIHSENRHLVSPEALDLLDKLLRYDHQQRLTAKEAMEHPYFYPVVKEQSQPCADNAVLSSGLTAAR
Sequence of Dual specificity mitogen-activated protein kinase kinase 2 (P36507 whole entry): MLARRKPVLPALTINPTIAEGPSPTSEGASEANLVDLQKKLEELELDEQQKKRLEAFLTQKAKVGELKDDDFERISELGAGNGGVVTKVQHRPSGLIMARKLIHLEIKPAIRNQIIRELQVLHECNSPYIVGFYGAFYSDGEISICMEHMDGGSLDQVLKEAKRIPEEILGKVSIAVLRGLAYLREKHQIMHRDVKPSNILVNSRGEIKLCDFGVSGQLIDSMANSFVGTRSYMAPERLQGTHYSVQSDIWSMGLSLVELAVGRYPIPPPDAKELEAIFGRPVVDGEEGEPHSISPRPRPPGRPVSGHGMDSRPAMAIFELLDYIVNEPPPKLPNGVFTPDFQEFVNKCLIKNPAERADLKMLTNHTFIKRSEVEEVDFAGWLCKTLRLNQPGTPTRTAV
Sequence of Mitogen-activated protein kinase kinase kinase kinase 5 (Q9Y4K4 whole entry): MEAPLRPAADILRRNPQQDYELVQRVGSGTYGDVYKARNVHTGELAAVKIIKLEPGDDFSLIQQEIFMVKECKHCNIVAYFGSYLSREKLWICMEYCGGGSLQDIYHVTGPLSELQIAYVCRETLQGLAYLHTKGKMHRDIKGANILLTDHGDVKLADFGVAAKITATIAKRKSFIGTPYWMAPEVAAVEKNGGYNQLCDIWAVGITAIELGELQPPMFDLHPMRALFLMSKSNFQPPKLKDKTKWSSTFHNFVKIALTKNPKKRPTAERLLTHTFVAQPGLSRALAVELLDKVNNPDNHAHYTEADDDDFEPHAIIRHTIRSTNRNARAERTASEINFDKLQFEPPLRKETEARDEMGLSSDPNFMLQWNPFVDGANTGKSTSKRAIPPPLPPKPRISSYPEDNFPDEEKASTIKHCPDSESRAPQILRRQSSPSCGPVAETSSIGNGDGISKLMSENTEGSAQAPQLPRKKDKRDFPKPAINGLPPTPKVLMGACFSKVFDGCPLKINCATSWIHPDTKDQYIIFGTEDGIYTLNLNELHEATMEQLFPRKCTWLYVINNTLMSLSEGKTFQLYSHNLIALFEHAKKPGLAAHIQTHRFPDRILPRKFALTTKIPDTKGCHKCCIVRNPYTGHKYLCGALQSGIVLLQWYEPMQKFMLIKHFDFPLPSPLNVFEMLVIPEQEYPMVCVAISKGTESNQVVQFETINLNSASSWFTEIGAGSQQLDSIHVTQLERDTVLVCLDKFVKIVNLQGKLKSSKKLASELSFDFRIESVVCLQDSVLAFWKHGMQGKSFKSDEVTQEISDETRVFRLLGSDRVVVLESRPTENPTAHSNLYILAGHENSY

What is called Kd is the free concentration of one partner at which half of the binding sites on the other are occupied at equilibrium, for simple one-to-one binding. Turning to `C[C@@H](Nc1cc(F)cc(F)c1)c1cc(C(=O)N(C)C)cc2c(=O)cc(N3CCOCC3)oc12` [AZD-8186], the Kd in experiment [1], in experiment [2], in experiment [3], in experiment [4], in experiment [5] and in experiment [6] was > 30 µM (inactive) throughout.
On to `COc1cc(OC)c(/C=C/S(=O)(=O)Cc2ccc(OC)c(NCC(=O)O)c2)c(OC)c1` [RIGOSERTIB], for which the Kd in experiment [1], in experiment [2], in experiment [3], in experiment [4], in experiment [5] and in experiment [6] was > 30 µM (inactive) in each case.
In the case of `CC[C@H](Nc1ncnc2[nH]cnc12)c1nc2cccc(F)c2c(=O)n1-c1ccccc1` [IDELALISIB], the Kd in experiment [1], in experiment [2], in experiment [3], in experiment [4], in experiment [5] and in experiment [6] was > 30 µM (inactive) each time.
Regarding `C[C@@H](c1ccc2nccn2c1)n1nnc2ncc(-c3cnn(C)c3)nc21` [SAVOLITINIB], the Kd in experiment [1], in experiment [2], in experiment [3], in experiment [4], in experiment [5] and in experiment [6] was > 30 µM (inactive) each time.
Consider `CN1N=C(N)c2cn([C@@H]3O[C@H](COP(=O)(O)O)[C@@H](O)[C@H]3O)c3ncnc1c23` [TRICIRIBINE PHOSPHATE], for which the Kd in experiment [1], in experiment [2], in experiment [3], in experiment [4], in experiment [5] and in experiment [6] was > 30 µM (inactive) throughout.
For `CNC(=O)CN1CCC(Oc2cc3c(Nc4cccc(Cl)c4F)ncnc3cc2OC)CC1` [SAPITINIB], the Kd in experiment [1], in experiment [2], in experiment [3], in experiment [4], in experiment [5] and in experiment [6] was > 30 µM (inactive) throughout.
Regarding `Cc1nc(N)sc1-c1ccnc(Nc2ccc(N3CCOCC3)cc2)n1` [CYC-116], the Kd is 0.015 µM (active) in experiment [3] and > 30 µM (inactive) in experiment [4].
For `Cc1cc(Nc2cc(N3CCN(C)CC3)nc(/C=C/c3ccccc3)n2)n[nH]1` [ENMD-2076], the Kd was > 30 µM (inactive) in experiment [2], 4.41 µM (active) in experiment [3], > 30 µM (inactive) in experiment [4] and > 30 µM (inactive) in experiment [5].
As for `O=C(Nc1cccc(Cl)c1)Nc1ncc(CCNc2ncnc3ccsc23)s1` [SNS-314], the Kd in experiment [2], in experiment [3] and in experiment [5] was > 30 µM (inactive) in each case.
Consider `Nc1nc(N)c2nc(-c3cccc(O)c3)c(-c3cccc(O)c3)nc2n1` [TG100-115], for which the Kd in experiment [3] is > 30 µM (inactive).
Regarding `CNS(=O)(=O)Nc1nccc(Cc2c(C)c3ccc(Oc4ncccn4)cc3oc2=O)c1F` [AVUTOMETINIB], the Kd in experiment [1], in experiment [2], in experiment [3], in experiment [5] and in experiment [6] was > 30 µM (inactive) throughout.
In the case of `COc1cc2nccc(Oc3ccc(NC(=O)Nc4cc(C)on4)c(Cl)c3)c2cc1OC` [TIVOZANIB], the Kd in experiment [1], in experiment [2], in experiment [3], in experiment [4] and in experiment [5] was > 30 µM (inactive) each time.
On to `CC(=O)Nc1cccc(-n2c(=O)n(C3CC3)c(=O)c3c(Nc4ccc(I)cc4F)n(C)c(=O)c(C)c32)c1` [TRAMETINIB], for which the Kd in experiment [1], in experiment [2], in experiment [3], in experiment [5] and in experiment [6] was > 30 µM (inactive) in each case.
On to `CCc1cnn2c(NCc3ccc[n+]([O-])c3)cc(N3CCCC[C@H]3CCO)nc12` [DINACICLIB], for which the Kd in experiment [2], in experiment [3], in experiment [5] and in experiment [6] was > 30 µM (inactive) throughout.
For the compound `OCCn1cc(-c2cnc3nnn(Cc4ccc5ncccc5c4)c3n2)cn1` [PF-04217903], the Kd in experiment [2], in experiment [3], in experiment [5] and in experiment [6] was > 30 µM (inactive) throughout.
With `COC(=O)[C@@]1(O)C[C@H]2O[C@]1(C)n1c3ccccc3c3c4c(c5c6ccccc6n2c5c31)C(=O)NC4` [K-252A], the Kd is > 30 µM (inactive) in experiment [2], > 30 µM (inactive) in experiment [3], 0.182 µM (active) in experiment [5] and 0.193 µM (active) in experiment [6].
Regarding `COc1cc2nccc(Oc3ccc(NC(=O)NC4CC4)c(Cl)c3)c2cc1C(N)=O` [LENVATINIB], the Kd in experiment [1], in experiment [2], in experiment [3], in experiment [4] and in experiment [5] was > 30 µM (inactive) each time.
In the case of `C=CC(=O)N1CCC(Oc2cc3c(Nc4ccc(Cl)c(Cl)c4F)ncnc3cc2OC)CC1` [POZIOTINIB], the Kd in experiment [1] is > 30 µM (inactive); in experiment [2], 0.069 µM (active); in experiment [4], > 30 µM (inactive); in experiment [5], > 30 µM (inactive); in experiment [6], > 30 µM (inactive).
